The target in experiment [1] is T1, Alkaline phosphatase, tissue-nonspecific isozyme (Homo sapiens, UniProt P05186).
T1 sequence (P05186 whole entry): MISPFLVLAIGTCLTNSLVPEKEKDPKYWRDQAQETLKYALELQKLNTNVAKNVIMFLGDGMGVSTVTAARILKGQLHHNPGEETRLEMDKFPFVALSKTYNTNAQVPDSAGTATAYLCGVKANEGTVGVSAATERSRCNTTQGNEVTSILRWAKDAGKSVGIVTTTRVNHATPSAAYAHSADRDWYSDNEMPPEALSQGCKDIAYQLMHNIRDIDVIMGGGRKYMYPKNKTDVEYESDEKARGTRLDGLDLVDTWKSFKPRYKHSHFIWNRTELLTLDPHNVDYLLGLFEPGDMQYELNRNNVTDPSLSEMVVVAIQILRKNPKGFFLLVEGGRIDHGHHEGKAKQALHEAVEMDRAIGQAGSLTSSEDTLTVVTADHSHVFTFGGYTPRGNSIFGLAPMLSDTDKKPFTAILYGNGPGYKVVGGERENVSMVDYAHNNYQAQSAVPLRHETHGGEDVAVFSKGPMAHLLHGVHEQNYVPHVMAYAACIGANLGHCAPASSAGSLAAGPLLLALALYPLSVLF
Nature of the experiment: human TNAP enzyme inhibitors, SAR follow-up, biochemical, luminescent, dose response (AID 1056).

Experiment [2] concerns the target T2, Rac GTPase-activating protein 1 (Homo sapiens, UniProt Q9H0H5).
T2 sequence (Q9H0H5 whole entry): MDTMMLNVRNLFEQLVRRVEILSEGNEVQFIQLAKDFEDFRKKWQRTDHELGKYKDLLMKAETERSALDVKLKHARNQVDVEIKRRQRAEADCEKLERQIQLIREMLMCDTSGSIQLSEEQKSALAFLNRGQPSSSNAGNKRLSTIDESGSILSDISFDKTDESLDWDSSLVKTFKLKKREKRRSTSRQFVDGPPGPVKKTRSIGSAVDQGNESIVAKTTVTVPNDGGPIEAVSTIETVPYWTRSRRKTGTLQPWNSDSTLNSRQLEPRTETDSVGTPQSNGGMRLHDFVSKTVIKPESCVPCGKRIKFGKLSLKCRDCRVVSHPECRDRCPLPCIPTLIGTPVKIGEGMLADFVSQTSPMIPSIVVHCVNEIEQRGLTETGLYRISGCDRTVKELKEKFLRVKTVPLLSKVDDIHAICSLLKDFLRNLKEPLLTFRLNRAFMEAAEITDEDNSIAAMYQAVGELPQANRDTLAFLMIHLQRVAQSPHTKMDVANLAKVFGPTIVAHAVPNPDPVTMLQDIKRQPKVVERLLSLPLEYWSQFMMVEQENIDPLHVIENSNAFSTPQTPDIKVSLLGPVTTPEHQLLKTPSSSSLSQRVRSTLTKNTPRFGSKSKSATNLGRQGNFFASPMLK
Nature of the experiment: MgcRacGAP GTPase-activating activity inhibitors, confirmation, biochemical, ADP Hunter fluorescence, primary and confirmatory (AID 624330). The class given is functional.

The source of these data is ChEMBL document CHEMBL1201862, “PubChem BioAssay data set” (2004).

Calls of active or inactive are those of the source.

Broadly, the IC50 is the concentration needed to halve the response being measured. In the case of `Cc1cc(C)nc(SCC(=O)c2ccc(O)c(O)c2)n1`, the IC50 is 5.76 µM (active) in experiment [1] and 30.6 µM (active) in experiment [2].
